Assays:
CXCR4 [1] = target: T1, CXCR4 (Homo sapiens, UniProt P61073); assay: Inhibition of binding of anti-CXCR4 mAbs to cells; assay type: cell-based; settings: for blocking of anti-CXCR4 mAb 44716 binding: H9 lymphoma cells, 1 μM compound, Fig. 2A; for inhibition of binding of anti-CXCR4 mAb 12G5 / inhibition of binding of anti-CXCR4 mAb 44708 / inhibition of binding of anti-CXCR4 mAb 44716 / inhibition of binding of anti-CXCR4 mAb 44717: 3 μM, Fig. 2C; for inhibition of anti-CXCR4 mAb 12G5 binding: titration, H9 cells and primary T cell blasts, Fig. 2B
T1 sequence (P61073 whole entry): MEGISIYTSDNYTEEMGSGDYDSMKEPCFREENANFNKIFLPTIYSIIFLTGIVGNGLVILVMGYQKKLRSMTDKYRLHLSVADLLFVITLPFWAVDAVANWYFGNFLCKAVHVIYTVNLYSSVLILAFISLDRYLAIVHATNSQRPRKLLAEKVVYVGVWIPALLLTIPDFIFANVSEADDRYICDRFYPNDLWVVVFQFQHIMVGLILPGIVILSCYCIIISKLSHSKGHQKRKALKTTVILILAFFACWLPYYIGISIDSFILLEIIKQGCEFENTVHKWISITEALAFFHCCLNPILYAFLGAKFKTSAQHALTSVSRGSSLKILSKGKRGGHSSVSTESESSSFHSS

CXCR4 [2] = target: T1, CXCR4; assay: Fluorescent T-140/CXCR4 cross-link inhibition; assay type: binding
TZM-bl = assay: MTS toxicity on TZM-bl; assay type: cell-based; settings: 72 h, concentrations up to 4 μM, data not shown
H9 = assay: MTS toxicity on H9; assay type: cell-based; settings: H9, 72 h, concentrations up to 4 μM, data not shown
PHA blast cultures = assay: MTS toxicity on PHA blast cultures; assay type: cell-based; settings: 72 h, concentrations up to 4 μM, data not shown
CD4 = CD4 (Homo sapiens, UniProt P01730); assay: Inhibition of binding of control anti-CD4 mAb Sim.2 to cells; assay type: cell-based; settings: titration, H9 cells and primary T cell blasts, Fig. 2B
X4 strains of HIV-1 = assay: TZM-bl HIV-1 neutralization assay, X4 isolates; assay type: cell-based; settings: TZM-bl cells, Fig. 3B

**Q.** How did the “blocking of anti-CXCR4 mAb 44716 binding” value (CXCR4 [1]) turn out when N=C(NCCCNCCCCN(CCCNC(=N)Nc1ccc2ccccc2c1)C(=N)Nc1ccc2ccccc2c1)Nc1ccc2ccccc2c1 [spermine tris-2-NapG, spermine tris-2-naphthylguanide] was run?
**A.** The value was “next best”.

**Q.** Which results are given for NCCCNCCCCNCCCN [spermine, reference compound]?
**A.** inhibition of binding of anti-CXCR4 mAb 12G5 (CXCR4 [1]): No inhibition; inhibition of binding of anti-CXCR4 mAb 44708 (CXCR4 [1]): No inhibition; inhibition of binding of anti-CXCR4 mAb 44716 (CXCR4 [1]): No inhibition; inhibition of binding of anti-CXCR4 mAb 44717 (CXCR4 [1]): No inhibition; inhibition of anti-CXCR4 mAb 12G5 binding (CXCR4 [1]): does not inhibit

**Q.** What does the source list for N=C(NCCCNCCCCN(CCCNC(=N)Nc1cccc2ccccc12)C(=N)Nc1cccc2ccccc12)Nc1cccc2ccccc12 [spermine tris-1-NapG, spermine tris-1-naphthylguanide]?
**A.** fold higher CXCR4 affinity than the previously published phenylguanides (CXCR4 [2]): 5 fold; inhibition in MTS dye reduction (TZM-bl): no significant inhibition; inhibition in MTS dye reduction (H9): no significant inhibition; inhibition in MTS dye reduction (PHA blast cultures): no significant inhibition; inhibition of binding of anti-CXCR4 mAb 12G5 (CXCR4 [1]): completely inhibited; inhibition of binding of anti-CXCR4 mAb 44708 (CXCR4 [1]): only partly inhibited; inhibition of binding of anti-CXCR4 mAb 44716 (CXCR4 [1]): completely inhibited; inhibition of binding of anti-CXCR4 mAb 44717 (CXCR4 [1]): only partly inhibited; blocking of anti-CXCR4 mAb 44716 binding (CXCR4 [1]): most effective; inhibition of anti-CXCR4 mAb 12G5 binding (CXCR4 [1]): inhibits anti-CXCR4 binding; inhibition of anti-CD4 mAb Sim.2 binding (CD4): not anti-CD4; inhibition of a panel of four X4-tropic viruses (X4 strains of HIV-1): all were inhibited at submicromolar concentrations

Source: article PMC3624624 (Bioorganic & medicinal chemistry letters, 2013)
